According to ChEMBL document CHEMBL5154879, “Induction of Genes Implicated in Stress Response and Autophagy by a Novel Quinolin-8-yl-nicotinamide QN523 in Pancreatic Cancer” (J Med Chem, 2022):
pIC50: −log10 of the molar value. Active and inactive are the calls of the source. The rule behind the calls is not given here.

Legend:
MIA PaCa-2 [1] = assay: Cytotoxicity against human MIA PaCa-2 cells assessed as inhibition of cell growth incubated for 72 hrs by MTT assay; type: functional, cell-based; details: MIA PaCa-2, 72 h
BXPC-3 = assay: Cytotoxicity against human BXPC-3 cells assessed as inhibition of cell growth incubated for 72 hrs by MTT assay; type: functional, cell-based; details: BXPC-3, 72 h
HCT-116 = assay: Antiproliferative activity against human HCT-116 cells assessed as inhibition of cell growth incubated for 72 hrs by MTT assay; type: functional, cell-based; details: HCT-116, 72 h
SNU-398 = assay: Antiproliferative activity against human SNU-398 cells assessed as inhibition of cell growth incubated for 72 hrs by MTT assay; type: functional, cell-based; details: SNU-398, 72 h
[2] = Cytotoxicity against human HPDE cells assessed as inhibition of cell growth incubated for 72 hrs by MTT assay; type: toxicity, cell-based
MIA PaCa-2 [3] = assay: Induction of cell cycle arrest in human MIA PaCa-2 cells assessed as accumulation of cells at S phase at 0.1 uM incubated for 24 hrs by RNase/propidium iodide staining based flow cytometry analysis (Rvb =27.6 %); type: functional
MIA PaCa-2 [4] = assay: Induction of cell cycle arrest in human MIA PaCa-2 cells assessed as accumulation of cells in G2/M phase at 0.5 uM incubated for 48 hrs by RNase/propidium iodide staining based flow cytometry analysis (reference value: 2.71%); type: functional
MIA PaCa-2 [5] = assay: Induction of apoptosis in human MIA PaCa-2 cells assessed as live cells at 0.5 uM incubated for 24 hrs by Annexin V-FITC/PI staining based flow cytometry analysis (reference value: 90.2%); type: functional
MIA PaCa-2 [6] = assay: Induction of apoptosis in human MIA PaCa-2 cells assessed as live cells at 0.1 uM incubated for 48 hrs by Annexin V-FITC/PI staining based flow cytometry analysis (reference value: 96.3%); type: functional
MIA PaCa-2 [7] = assay: Induction of apoptosis in human MIA PaCa-2 cells assessed as early apoptotic cells at 0.5 uM incubated for 48 hrs by Annexin V-FITC/PI staining based flow cytometry analysis (reference value: 1.8%); type: functional
MIA PaCa-2 [8] = assay: Induction of apoptosis in human MIA PaCa-2 cells assessed as late apoptotic cells at 0.5 uM incubated for 48 hrs by Annexin V-FITC/PI staining based flow cytometry analysis (reference value: 0.8%); type: functional
[9] = Toxicity in NOD/SCID mouse xenografted with human MIA PaCa-2 cells assessed as lethargy at 10 to 20 mg/kg, ip administered five times a week for 44 days; type: organism-based; details: in vivo, 1056 h, dose 10-20 mg/kg, time 44 day
[10] = Upregulation of TRIB3 gene expression in human MIA PaCa-2 cells assessed as fold change in TRIB3 expression at 1 uM incubated for 24 hrs by Bru-seq analysis relative to control; type: functional
[11] = Upregulation of HERPUD1 gene expression in human MIA PaCa-2 cells assessed as fold change in HERPUD1 expression at 1 uM incubated for 24 hrs by Bru-seq analysis relative to control; type: functional
[12] = Upregulation of HMOX1 gene expression in human MIA PaCa-2 cells assessed as fold change in HMOX1 expression at 1 uM incubated for 24 hrs by Bru-seq analysis relative to control; type: functional
[13] = Upregulation of HSPA5 gene expression in human MIA PaCa-2 cells assessed as fold change in HSPA5 expression at 1 uM incubated for 24 hrs by Bru-seq analysis relative to control; type: functional
[14] = Downregulation of FGF18 gene expression in human MIA PaCa-2 cells assessed as fold change in FGF18 expression at 1 uM incubated for 24 hrs by Bru-seq analysis relative to control; type: functional
[15] = Downregulation of CCDC85C gene expression in human MIA PaCa-2 cells assessed as fold change in CCDC85C expression at 1 uM incubated for 24 hrs by Bru-seq analysis relative to control; type: functional
[16] = Downregulation of STK1I gene expression in human MIA PaCa-2 cells assessed as fold change in STK1I expression at 1 uM incubated for 24 hrs by Bru-seq analysis relative to control; type: functional
[17] = Downregulation of SEMA4C gene expression in human MIA PaCa-2 cells assessed as fold change in SEMA4C expression at 1 uM incubated for 24 hrs by Bru-seq analysis relative to control; type: functional
MIA PaCa-2 [18] = assay: Induction of UPR pathway in human MIA PaCa-2 cells by ingenuity pathway analysis; type: functional, cell-based
MIA PaCa-2 [19] = assay: Induction of ER stress pathway in human MIA PaCa-2 cells by ingenuity pathway analysis; type: functional, cell-based
MIA PaCa-2 [20] = assay: Upregulation of apoptosis transcription gene expression in human MIA PaCa-2 cells; type: functional, cell-based
MIA PaCa-2 [21] = assay: Upregulation of stress response gene expression in human MIA PaCa-2 cells; type: functional, cell-based
MIA PaCa-2 [22] = assay: Upregulation of NFkappaB expression in human MIA PaCa-2 cells by gene set enrichment analysis; type: functional, cell-based
MIA PaCa-2 [23] = assay: Induction of autophagy in human MIA PaCa-2 cells assessed as accumulation of LC3B marker gene expression at upto 2 uM incubated for 72 hrs by Western blot analysis; type: functional, cell-based
MIA PaCa-2 [24] = assay: Upregulation of HSPA5 gene expression in human MIA PaCa-2 cells incubated for 72 hrs by Western blot analysis; type: functional, cell-based; details: DDE = dose-dependent effect
MIA PaCa-2 [25] = assay: Upregulation of ATF3 gene expression in human MIA PaCa-2 cells incubated for 72 hrs by Western blot analysis; type: functional, cell-based; details: dose <= 600.0 µM, DDE = dose-dependent effect

Work on `O=C(Nc1cccc2cccnc12)c1cnccn1` yielded a pIC50 (MIA PaCa-2 [1]) of 6.96, a pIC50 (BXPC-3) of 5.48 and a pIC50 (HCT-116) of 7.00. The pIC50 (SNU-398) was 5.72, the IC50 at 72 h [2] was 550 nM and the Activity (MIA PaCa-2 [3]) was 33.2%. For the same compound, the Activity (MIA PaCa-2 [4]) was 11.5%, the Activity (MIA PaCa-2 [5]) was 86.2% and the Activity (MIA PaCa-2 [6]) was 92%. For the same compound, the Activity (MIA PaCa-2 [7]) was 2.2%, the Activity (MIA PaCa-2 [8]) was 1.8% and the Activity [9] was “Non-Toxic”. The “fold change (FC)” value [10] was 14.5, the “fold change (FC)” value [11] was 9.8 and the “fold change (FC)” value [12] was 13. The “fold change (FC)” value [13] was 8.8, the “fold change (FC)” value [14] was 0.32 and the “fold change (FC)” value [15] was 0.42. The “fold change (FC)” value [16] was 0.4, the “fold change (FC)” value [17] was 0.39 and the Activity (MIA PaCa-2 [18]) was “Active”. The Activity (MIA PaCa-2 [19]) was “Active”, the Activity (MIA PaCa-2 [20]) was “Active” and the Activity (MIA PaCa-2 [21]) was “Active”. The Activity (MIA PaCa-2 [22]) was “Active”, the Activity (MIA PaCa-2 [23]) was “Active” and the Activity (MIA PaCa-2 [24]) was “Dde”. The Activity (MIA PaCa-2 [25]) was “Dde”.
